From patent US7528150B2, “Urea derivatives having vanilloid receptor antagonist activity” (Glaxo Group Limited, priority 2003, dated 2009)

Molecular target: T1, human VR1 (Homo sapiens, UniProt Q8NER1)
T1 construct: expressed in transfected cells; host or cells: astrocytoma 1321N1 cells, stably transfected
Experiment: FLIPR based calcium assay, antagonism of capsaicin response in 1321N1 cells stably expressing human VR1
Assay type: cell-based
Conditions: transfected astrocytoma 1321N1 cells expressing human VR1; capsaicin as agonist; pKb generated from IC50 using the Cheng-Prusoff equation
Protocol: The screen used for the compounds of this invention was based upon a FLIPR based calcium assay, similar to that described by Smart et al. (British Journal of Pharmacology, 2000, 129, 227-230). Transfected astrocytoma 1321N1 cells, stably expressing human VR1, were seeded into FLIPR plates at 25,000 cells/well (96-well plate) and cultured overnight.
The cells were subsequently loaded in medium containing 4 μM Fluo-3 AM (Molecular Probes) for 2 h, at room temperature, in the dark. The plates were then washed 4 times with Tyrode containing 1.5 mM calcium, without probenecid. The cells were pre-incubated with compound or buffer control at room temperature for 30 min. Capsaicin (Sigma) was then added to the cells. Compounds having antagonist activity against the human VR1 were identified by detecting differences in fluorescence when measured after capsaicin addition, compared with no compound buffer controls. Thus, for example, in the buffer control capsaicin addition results in an increase in intracellular calcium concentration resulting in fluorescence. A compound having antagonist activity blocks the capsaicin binding to the receptor, there is no signalling and therefore no increase in intracellular calcium levels and consequently lower fluorescence. pKb values are generated from the IC50 values using the Cheng-Prusoff equation.

T1 sequence (Q8NER1 whole entry): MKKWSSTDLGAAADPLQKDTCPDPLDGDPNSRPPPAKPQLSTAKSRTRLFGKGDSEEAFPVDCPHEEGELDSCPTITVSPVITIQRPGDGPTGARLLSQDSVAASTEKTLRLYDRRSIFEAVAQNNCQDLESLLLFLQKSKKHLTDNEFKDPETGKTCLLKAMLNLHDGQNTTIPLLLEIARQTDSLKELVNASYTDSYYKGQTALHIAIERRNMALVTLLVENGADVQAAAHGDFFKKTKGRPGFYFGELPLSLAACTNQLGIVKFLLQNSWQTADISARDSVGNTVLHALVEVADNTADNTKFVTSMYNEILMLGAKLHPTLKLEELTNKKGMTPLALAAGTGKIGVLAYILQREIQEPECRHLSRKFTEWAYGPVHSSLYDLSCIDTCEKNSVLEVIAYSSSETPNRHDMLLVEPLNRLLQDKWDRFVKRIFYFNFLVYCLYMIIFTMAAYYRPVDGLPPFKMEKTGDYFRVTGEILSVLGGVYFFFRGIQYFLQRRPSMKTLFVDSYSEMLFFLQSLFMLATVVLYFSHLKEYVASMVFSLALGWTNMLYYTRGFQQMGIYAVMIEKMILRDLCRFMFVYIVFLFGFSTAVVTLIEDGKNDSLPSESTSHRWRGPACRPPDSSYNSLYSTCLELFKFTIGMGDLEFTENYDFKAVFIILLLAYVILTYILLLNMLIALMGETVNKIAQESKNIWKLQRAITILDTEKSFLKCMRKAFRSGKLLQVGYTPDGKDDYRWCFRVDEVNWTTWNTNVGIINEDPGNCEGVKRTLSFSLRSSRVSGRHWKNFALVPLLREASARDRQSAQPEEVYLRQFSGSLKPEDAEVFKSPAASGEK

Kb | SMILES
< 100 nM | Cc1cc2c(NC(=O)N[C@@H]3CCN(Cc4cccc(Cl)c4)C3)cccc2cn1 [Example 14]
< 100 nM | Cc1cc2c(NC(=O)N[C@@H]3CCN(Cc4cccc(C(F)(F)F)c4)C3)cccc2cn1 [Example 16]
< 100 nM | Cc1cc2c(NC(=O)N[C@@H]3CCN(Cc4ccc(C(F)(F)F)cc4)C3)cccc2cn1 [Example 17]
< 100 nM | Cc1nccc2c(NC(=O)NC3CN(Cc4ccccc4C(F)(F)F)C3)cccc12 [Example 22]
